One data set deals with E. coli (EC) ATCC 25922. As to the kind of experiment: Susceptibility test (MIC), broth dilution, E. coli. The format is cell-based. Conditions: Escherichia coli, ATCC25922, E. coli ATCC 25922, 14-20 hour incubation, read-out: Minimum Inhibitory Concentration. As for the experimental part:
(§1) The minimum inhibitory concentration (MIC) was determined according to the Clinical and Laboratory Standards Institute (CLSI) guidelines by broth dilution. Bacteria were cultured in an appropriate medium (such as Cation-Adjusted Muller Hinton Broth) for 6-12 hours and diluted into same medium containing 2-fold serial dilutions of antibiotics. MIC values were derived after 14-20 hour incubation, and were the result of at least 3 independent determinations. The MIC study included Gram-negative strains Salmonella enterica Typhimurium (ST) ATCC 14028, E. coli (EC) ATCC 25922, Pseudomonas aeruginosa (PA) ATCC 27853, and Klebsiella pneumoniae (KPN) ATCC 700603 and Gram-positive strain S. aureus (SA) ATCC 259213.

Data set [1] relates to all tested bacterial strains. Description: Susceptibility test, comparison over all tested bacterial strains. The format is cell-based, Gram-positive and Gram-negative bacteria. The method, then:
as §1

Data set [2] concerns Pseudomonas aeruginosa (PA) ATCC 27853. Description: Susceptibility test (MIC), broth dilution, Pseudomonas aeruginosa. The format is cell-based. Conditions: ATCC27853, Pseudomonas aeruginosa ATCC 27853, 14-20 hour incubation, read-out: Minimum Inhibitory Concentration. The method, then: as §1
(In general: Dilution methods test growth across graded concentrations, often in twofold steps.)

The test system of data set [3] is Salmonella enterica Typhimurium (ST) ATCC 14028. Description: Susceptibility test (MIC), broth dilution, Salmonella enterica Typhimurium. The format is cell-based. Conditions: Salmonella enterica Typhimurium ATCC 14028, 14-20 hour incubation, read-out: Minimum Inhibitory Concentration. The method, then: as §1
The test system of data set [4] is HepG2 (ATCC HB-8065) cells. As to the kind of experiment: Cytotoxicity, MTT viability assay, HepG2. The format is cell-based. The method, then:
(§2) Cellular cytotoxicity was assessed using an MTT viability assay. HepG2 (ATCC HB-8065) cells were seeded at 1×10^4 cells/well in 96 well plates over night at 37 °C in DMEM supplemented with 10% FBS before use. Compounds were serially diluted with 2-fold dilution in culture media to afford a concentration ranging from 8 to 1024 μg/mL. After 24 h incubation, 10 μL of a 5 mg/mL solution of MTT was added to each well. After incubation for 2-4 h, upon discard of previous media, 100 μL of DMSO as solubilizing solution was added to each well, and absorbance at 570 nm were measured on a plate reader. Percent viability was determined by dividing background-corrected absorbance measurements by background corrected measurements for untreated cells. The lowest concentration for which percent viability was less than 50% was deemed the cytotoxicity IC50.

Data set [5] in a line: Cytotoxicity, MTT viability assay, HepG2. The format is cell-based. Conditions: human, hepg2 cells; HepG2, MTT, 24 h incubation, 8 to 1024 μg/mL; lowest concentration with viability less than 50%; read-out: Cytotoxicity (IC50). The method, then: as §2
The nature of data set [6]: Hydrophobicity (comparison; RP-HPLC retention times in Table 1). The format is physicochemical. The text has this:
The MIC and cytotoxicity results for previously-described quaternary ammonium COEs COE2-3C, COE2-3C-C4butyl, and COE2-3C-C4hexyl are consistent with previous data (See Limwongyut et al., Chem. Sci. (2020) 11 (31): 8138-8144).

The subject of data set [7] is Klebsiella pneumoniae (KPN) ATCC 700603. As to the kind of experiment: Susceptibility test (MIC), broth dilution, Klebsiella pneumoniae. The format is cell-based. Conditions: ATCC700603, Klebsiella pneumoniae ATCC 700603, 14-20 hour incubation, read-out: Minimum Inhibitory Concentration. The method, then: as §1
The subject of data set [8] is S. aureus (SA) ATCC 259213. Description: Susceptibility test (MIC), broth dilution, S. aureus. The format is cell-based. Conditions: Staphylococcus aureus, ATCC259213, read-out: Minimum Inhibitory Concentration. As for the experimental part: as §1
Setting [9] is: Formula C and Formula K compared with each other.
Setting [10] is: Formula C compared with COE2-3C-C4butyl.
[11] abbreviates: Formula K and Formula A compared with each other.
[12] abbreviates: Formula A compared with COE2-3C and COE2-3C-C4butyl.

In the case of `CCCN(CCCOc1cc(/C=C/c2ccc(/C=C/c3cc(OCCCN(CCC)C(=N)C4CC4)cc(OCCCN(CCC)C(=N)C4CC4)c3)cc2)cc(OCCCN(CCC)C(=N)C2CC2)c1)C(=N)C1CC1` [Formula C], the MIC in the data set with E. coli (EC) ATCC 25922 was found to be 2 µg/mL; in data set [2], 32 µg/mL; in data set [3], 2 µg/mL; in data set [7], 8 µg/mL; in data set [8], 1 µg/mL. Also, the figures for the “activity against all tested bacterial strains” value (shortened to “activity”) in data set [1] (setting [9]) and in data set [1] (setting [10]) were “identical activities against all tested bacterial strains” and “more active against all tested bacterial strains”, respectively. Besides, the results for the “cytotoxicity (comparison)” value in data set [4] (setting [9]) and in [4] (setting [10]) were “different cytotoxicity” and “similar”, respectively. Further, the CC50 at 24 h in data set [5] came to 16 µg/mL. Also, the “hydrophobicity (comparison)” value in data set [6] (setting [9]) is given as “different”.
On to `C(=C\c1cc(OCCCNC2=NCCC2)cc(OCCCNC2=NCCC2)c1)/c1ccc(/C=C/c2cc(OCCCNC3=NCCC3)cc(OCCCNC3=NCCC3)c2)cc1` [Formula J], for which the MIC is 1 µg/mL in the data set on E. coli (EC) ATCC 25922; 16 µg/mL in data set [2]; 2 µg/mL in [3]; 16 µg/mL in data set [7]; 1 µg/mL in data set [8]. Besides, the CC50 at 24 h in [5] stood at 1020 µg/mL.
With `CCC(=N)N(CCCOc1cc(/C=C/c2ccc(/C=C/c3cc(OCCCN(C(=N)CC)C4CC4)cc(OCCCN(C(=N)CC)C4CC4)c3)cc2)cc(OCCCN(C(=N)CC)C2CC2)c1)C1CC1` [Formula E], the MIC in the data set on E. coli (EC) ATCC 25922 is 2 µg/mL; in data set [2], 16 µg/mL; in data set [3] it was 2 µg/mL; in data set [7], 8 µg/mL; in data set [8], 1 µg/mL. Moreover, in data set [5], the CC50 at 24 h was 128 µg/mL.
As for `CN(CCCOc1cc(/C=C/c2ccc(/C=C/c3cc(OCCCN(C)C(=N)C4CC4)cc(OCCCN(C)C(=N)C4CC4)c3)cc2)cc(OCCCN(C)C(=N)C2CC2)c1)C(=N)C1CC1` [Formula B], the MIC amounted to 1 µg/mL with E. coli (EC) ATCC 25922; 8 µg/mL in [2]; 1 µg/mL in data set [3]; 8 µg/mL in [7]; 1 µg/mL in [8]. Further, the CC50 at 24 h in [5] amounted to 1020 µg/mL.
Regarding `C/C(=N\C1CC1)NCCCOc1cc(/C=C/c2ccc(/C=C/c3cc(OCCCN/C(C)=N/C4CC4)cc(OCCCN/C(C)=N/C4CC4)c3)cc2)cc(OCCCN/C(C)=N/C2CC2)c1` [Formula K], the MIC stood at 2 µg/mL in the data set on E. coli (EC) ATCC 25922; 32 µg/mL in data set [2]; 2 µg/mL in data set [3]; 8 µg/mL in [7]; 1 µg/mL in [8]. Besides, the “activity” value in data set [1] (setting [9]) is “identical activities against all tested bacterial strains”. In addition, the “cytotoxicity (comparison)” value in [4] (setting [9]) is given as “different cytotoxicity”; in data set [4] (setting [11]), “similar”. Also, the CC50 at 24 h in data set [5] was more than 1020 µg/mL. The “hydrophobicity (comparison)” value in data set [6] (setting [9]) is on record as “different”.
For `CCCN(CCCOc1cc(/C=C/c2ccc(/C=C/c3cc(OCCCN(CCC)C(=N)CC)cc(OCCCN(CCC)C(=N)CC)c3)cc2)cc(OCCCN(CCC)C(=N)CC)c1)C(=N)CC` [Formula F], the MIC is 2 µg/mL with E. coli (EC) ATCC 25922; 16 µg/mL in data set [2]; 2 µg/mL in [3]; 8 µg/mL in data set [7]; 1 µg/mL in data set [8]. Besides, the CC50 at 24 h in [5] is 32 µg/mL.
As to `N=C(NCCCOc1cc(/C=C/c2ccc(/C=C/c3cc(OCCCNC(=N)C4CC4)cc(OCCCNC(=N)C4CC4)c3)cc2)cc(OCCCNC(=N)C2CC2)c1)C1CC1` [Formula A], the MIC came out at 1 µg/mL with E. coli (EC) ATCC 25922; 2 µg/mL in data set [2]; 1 µg/mL in data set [3]; 4 µg/mL in data set [7]; 0.5 µg/mL in data set [8]. The “activity” value is on record as “considerably higher activity against all tested bacterial strains” in data set [1] (setting [12]) and “more active against all tested bacterial strains” in [1] (Formula A compared with Formula K). In [4] (setting [11]), the “cytotoxicity (comparison)” value is recorded as “similar”. In addition, the CC50 at 24 h in data set [5] is more than 1020 µg/mL. Moreover, the “hydrophobicity (comparison)” value in data set [6] (setting [12]) is “intermediate hydrophobicity”.
Consider `N=C(CC1CC1)NCCCOc1cc(/C=C/c2ccc(/C=C/c3cc(OCCCNC(=N)CC4CC4)cc(OCCCNC(=N)CC4CC4)c3)cc2)cc(OCCCNC(=N)CC2CC2)c1` [Formula G], for which the MIC in the data set on E. coli (EC) ATCC 25922 was 2 µg/mL; in [2], 8 µg/mL; in data set [3], 2 µg/mL; in data set [7], 4 µg/mL; in data set [8], 1 µg/mL. In addition, the CC50 at 24 h in [5] was determined as 256 µg/mL.
Regarding `CCC(=N)N(C)CCCOc1cc(/C=C/c2ccc(/C=C/c3cc(OCCCN(C)C(=N)CC)cc(OCCCN(C)C(=N)CC)c3)cc2)cc(OCCCN(C)C(=N)CC)c1` [Formula D], the MIC in the data set with E. coli (EC) ATCC 25922 stood at 1 µg/mL; in data set [2], 8 µg/mL; in [3], 2 µg/mL; in data set [7] it was 16 µg/mL; in data set [8], 1 µg/mL. In addition, the CC50 at 24 h in data set [5] was more than 1020 µg/mL.
With `C/N=C(\C)NCCCOc1cc(/C=C/c2ccc(/C=C/c3cc(OCCCN/C(C)=N/C)cc(OCCCN/C(C)=N/C)c3)cc2)cc(OCCCN/C(C)=N/C)c1` [Formula H], the MIC with E. coli (EC) ATCC 25922 was determined as 2 µg/mL; in data set [2], 32 µg/mL; in [3] it was 2 µg/mL; in data set [7] it was 16 µg/mL; in data set [8], 1 µg/mL. In addition, the CC50 at 24 h in data set [5] was more than 1020 µg/mL.

These data come from patent publication US20260374731A1, “ANTIMICROBIAL CONJUGATED OLIGOELECTROLYTES AS BROAD-SPECTRUM ANTIBIOTICS” (The Regents of the University of California, priority 2023, published 2026).
